From patent US12433853B2, “Rationally designed lawsone derivatives as antimicrobials against multidrug-resistant Staphylococcus aureus” (KENT STATE UNIVERSITY, priority 2019, dated 2025)
Values after ≈ are worked out from the molar mass of the structure shown.

Experiments:
[1] = tested on: biofilm formed by MRSA (ATCC BAA-44); assay: Biofilm inhibition assay; assay type: cell-based, Staphylococcus aureus; details: 24 h
Method: FIG. 6 is a chart showing the effect of 6c on the inhibition of biofilm formed by MRSA (ATCC BAA-44). Percentage of viable bacteria in the biofilm formed by MRSA in response to the treatment of Lawsone-derivatives (6a, 6b, 6c, 6d, and 6e) at varying concentrations (0-30 μM) (mean±s·d, n=3 independent experiments);
By observing the antibacterial efficacy of 6c against planktonic phase of MRSA, we next examined whether 6c could be effective against biofilm phase of MRSA. For this, the biofilm inhibition assay was performed using the established procedure. […] For the quantification of biofilm mass, the solutions in the plate with biofilm were replaced with a 100 μL solution containing 0.5% of crystal violet and incubated for 30 min at room temperature in the dark. […] The absorbance of the biofilm was measured at 595 nm using a microplate reader and the results were expressed as percentage changes with respect to the control (without compounds). For the quantification of the number of viable bacteria in the biofilm, the biofilms were gently destroyed and plated on TSA after serial dilutions of each suspension. The number of viable bacteria in the sample was obtained using agar plate counting method as described above and results were expressed as percentage changes with respect to the control.

[2] = tested on: MSSA (ATCC 29213); assay: Sequential passaging drug resistance development study in MSSA; assay type: cell-based, Staphylococcus aureus; details: MSSA ATCC 29213, sequential passaging, vs vancomycin and ciprofloxacin
Source text: FIG. 5 is a chart showing the drug resistance development of 6c in comparison with vancomycin and ciprofloxacin in MSSA (ATCC SA 29213);
(§1) Typical clinical antibiotics can readily produce genetic mutants when used to treat the same bacterial over and over again, which is the major cause of antibiotic drug resistance in many pathogenic bacteria these days and of emergence of superbugs. To test if 6c can develop drug resistance in either MSSA (ATCC 29213) or MRSA (ATCC BAA-44), we performed sequential passaging studies with 6c. Briefly, the MIC values for S. aureus strains to be tested were determined first. Then, cells grown in the initial MIC dose of the compound or antibiotics from the previous passage were once again harvested after 24-h incubation period and assayed for a new MIC. The process was repeated for 56 passages against MRSA (ATCC BAA-44).

[3] = tested on: MRSA (ATCC BAA-44 and ATCC BAA-1717); assay: microbe, parasite or virus in culture; assay type: cell-based, Staphylococcus aureus
Method: (§2) The MICs were determined by the broth microdilution method by following Clinical and Laboratory Standards Institute (CLSI) guidelines
(§3) Spectroscopic characterization and X-ray structural determination unequivocally confirmed the identities of all the five new compositions of matter, that is compounds denoted as 6a through 6e.

[4] = tested on: MRSA (ATCC BAA-44); assay: Sequential passaging drug resistance development study in MRSA; assay type: cell-based, Staphylococcus aureus; details: for MIC: Staphylococcus aureus, read-out: initial MIC
Source text: FIG. 4 is a chart showing the drug resistance development of 6c in comparison with vancomycin and ofloxacin in MRSA (ATCC BAA-44);
as §1

[5] = tested on: MRSA; assay: Non-lethal systemic infection model, i.p. treatment; assay type: in vivo, mice (C57BL/6); details: single dose 15 mg/kg i.p. at day 1 post-infection, CFU at day 2; p<0.05
Source text: FIG. 8 is a chart showing the effect of the treatment of 6c (via i.p injection, […]) on the bacterial burden in lung (b), spleen (c), kidney (d), liver (e), and peritoneal (f) tissues of mice (C57BL/6 mice, male, 8-12 weeks old) infected by MRSA (mean±s·d, n=8 mice per group). The CFU counts from homogenized tissue collected from each mouse was run in duplicates. *: p<0.05, **: p<0.01, and ***: p<0.001.
(§4) To validate the in vivo antibacterial efficacy, we conducted the studies of treating the infections of local wound infection as well as non-lethal systemic infection induced by MRSA. For local infection, a full-thickness, circular wound was generated on the dorsal surface of each mouse (C57BL/6) using a 6-mm sterile biopsy punch after the mouse was anesthetized, followed by inoculating with 1×10^6 CFU MRSA (ATCC BAA-44) in the wounded skin at day 0 and then a defined amount of 6c or vancomycin (80 μg in 40 μL sterile saline per wound) was topically applied once to the wounds of mice at day 1 post-infection. The CFU number of viable bacteria in the wound was quantified at day 2 post-infection. […] The CFU number of viable bacteria was counted at day 2 post-infection from major organs including lung, kidney, spleen, liver, and peritoneal tissues. […]

[6] = tested on: MRSA^vanR; assay: MIC against vancomycin-resistant mutant MRSA from day 56 passage (cross-resistance); assay type: cell-based; details: Staphylococcus aureus
Method: as §1

[7] = tested on: MRSA (ATCC BAA-44); assay: Local wound infection model, topical treatment; assay type: in vivo, mice (C57BL/6); details: single topical dose 80 μg per wound at day 1 post-infection, CFU at day 2
Method: FIG. 7 is a chart showing the effect of the treatment of 6c or vancomycin (via topical treatment, single dose at 80 μg per wound) on the bacterial burden in wounds of mice (C57BL/6 mice, male, 8-12 weeks old) infected by MRSA at day 2 post-wounding (mean±s·d, n=3 mice per group). The CFU counts from homogenized tissue collected from each mouse was run in duplicates. *: p<0.05 vs control;
as §4

[8] = tested on: MRSA (ATCC BAA-44); assay: Checkerboard assay of 6c with oxacillin; assay type: cell-based, Staphylococcus aureus; details: 6c combined with oxacillin
Method: MIC of oxacillin in the presence of 0.6 μg/mL of 6c. ^bMIC of 6c in the presence of 4 μg/mL of oxacillin. The MICs were determined by the broth microdilution method by following Clinical and Laboratory Standards Institute (CLSI) guidelines.
The checkerboard assay was performed in a 96-well plate using the established method. Specifically, the antibiotic oxacillin was 2-fold serially diluted along the row-axis and 6c was 2-fold serially diluted along the column-axis to create a matrix in which each well consists of a combination of both at different concentrations. Each well was inoculated with MRSA (ATCC BAA-44) to yield approximately 5×10^5 CFU/mL in a 100-μL final volume, incubated for 20 h at 37° C. and examined for visibility to determine the MIC. Dividing the MIC of 6c in the presence of antibiotic by the MIC of 6c alone was used to calculate the fractional inhibitory concentration (FIC) of 6c. Similarly, dividing the MIC of antibiotic in the presence of 6c by the MIC of the antibiotic alone was used to calculate the fractional inhibitory concentration (FIC) of the antibiotic. The FIC index was calculated by the summation of both FIC values. The FIC index was interpreted as synergistic, additive, or antagonistic for values of x≤0.5, 0.5<x<4, or ≥4, respectively.

[9] = tested on: MRSA^oflR; assay: MIC against ofloxacin-resistant mutant MRSA from day 56 passage (cross-resistance); assay type: cell-based; details: Staphylococcus aureus
Method: as §1

[10] = tested on: MSSA (ATCC 29213 and ATCC 6538); assay: MIC by broth microdilution (CLSI) against MSSA; assay type: cell-based, Staphylococcus aureus; details: two strains of MSSA
Method: as §2, §3

[11] = tested on: vancomycin-intermediate and daptomycin non-susceptible strain of MRSA (ATCC 700699); assay: MIC by broth microdilution (CLSI) against vancomycin-intermediate, daptomycin non-susceptible MRSA; assay type: cell-based; details: Staphylococcus aureus, ATCC 700699 / MRSA / VISA
Method: as §2, §3

[12] = at 56 passages (end of measurements)

Compound: CCCCc1ccc(CC2=C(O)C(=O)c3ccccc3C2=O)cc1 [6c, 2-[(4-butylphenyl)methyl]-3-hydroxy-[1,4]naphthoquinone]
- suppression of biofilm formation ([1]; dose of 1×MIC (5 μM or 1.5 μg/mL)): 40%
- suppression of biofilm formation ([1]; dose of 3×MIC (15 μM or 4.5 μg/mL)): 90%
- drug resistance profile [2]: improved drug resistance profile
- MIC ([3]; Staphylococcus aureus): 1.25 to 2.5 µg/mL (≈ 3.9 to 7.8 µM)
- MIC [4]: 1.25 µg/mL (≈ 3.9 µM)
- increase of MIC [4, 12]: 4 fold
- change of MIC ([4]; up to 33 passages): largely unchanged
- bacterial burdens in kidney, liver, and peritoneal tissues vs vehicle control [5]: significantly reduced
- MIC [6]: 5 µg/mL (≈ 15.6 µM)
- reduction of MRSA numbers (CFU) in the wound vs control [7]: 60%
- FIC index interpretation [8]: synergistic (x≤0.5)
- FIC ([8]; MRSA ATCC BAA-44, 20 h): 0.31
- MIC [9]: 1.25 µg/mL (≈ 3.9 µM)
- antimicrobial activity (MIC) compared with ofloxacin and ciprofloxacin [10]: comparable
- MIC [11]: 1.25 to 2.5 µg/mL (≈ 3.9 to 7.8 µM)

Compound: CCCCCCCCCC(=O)N[C@@H](Cc1c[nH]c2ccccc12)C(=O)N[C@H](CC(N)=O)C(=O)N[C@@H](CC(=O)O)C(=O)N[C@@H]1C(=O)NCC(=O)N[C@@H](CCCN)C(=O)N[C@@H](CC(=O)O)C(=O)N[C@H](C)C(=O)N[C@@H](CC(=O)O)C(=O)NCC(=O)N[C@H](CO)C(=O)N[C@@H]([C@H](C)CC(=O)O)C(=O)N[C@@H](CC(=O)c2ccccc2N)C(=O)O[C@@H]1C [daptomycin]
- MIC ([3]; MRSA ATCC BAA-44 and ATCC BAA-1717, broth microdilution): ~1 µg/mL (≈ 0.617 µM)

Compound: CC1COc2c(N3CCN(C)CC3)c(F)cc3c(=O)c(C(=O)O)cn1c23 (stereo not shown) [ofloxacin]
- MIC [4]: 8 µg/mL (≈ 22.1 µM)
- increase of MIC ([4]; after 5 passages): 4 fold
- increase of MIC ([4]; at 35 passages): 32 fold
- increase of MIC [4, 12]: 64 fold

Compound: CN[C@H](CC(C)C)C(=O)N[C@H]1C(=O)N[C@@H](CC(N)=O)C(=O)N[C@H]2C(=O)N[C@H]3C(=O)N[C@H](C(=O)N[C@H](C(=O)O)c4cc(O)cc(O)c4-c4cc3ccc4O)[C@H](O)c3ccc(c(Cl)c3)Oc3cc2cc(c3O[C@@H]2O[C@H](CO)[C@@H](O)[C@H](O)[C@H]2O[C@H]2C[C@](C)(N)[C@H](O)[C@H](C)O2)Oc2ccc(cc2Cl)[C@H]1O [vancomycin]
- MIC ([3]; Staphylococcus aureus): ~1 µg/mL (≈ 0.69 µM)
- MIC [4]: 1 µg/mL (≈ 0.69 µM)
- increase of MIC [4, 12]: 128 fold
- increase of MIC ([4]; by 51 passages): 4 fold
- reduction of MRSA numbers (CFU) in the wound vs control [7]: ~50%
